Source: ChEMBL document CHEMBL1201862, “PubChem BioAssay data set” (2004)
Each block holds one compound with its values, some of them ahead of it. Activity calls are given as the source filed them.

Assays:
[1] = target: Mitogen-activated protein kinase 10 (Homo sapiens, UniProt P53779); experiment: Dose response biochemical screening assay for inhibitors of c-Jun N-Terminal Kinase 3 (JNK3). [Related pubchem assays: 746 ]
[2] = off-target signal loss in HeLa-CEM21 co-culture – HeLa F-luc CTL cells, cherry-picked, counter-screen for HIV-1 Env fusion inhibitor project, dose response (AID 652040); assay type: functional, cell-based;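 also: potency for signal decrease marking cytotoxic or nonspecific inhibition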
[3] = inhibitors of clade B AD8 Env fusion, dose response, cell-based, cherry-pick (AID 652062); assay type: functional;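 also: luciferase signal from cell-cell fusion driven by HIV-1 clade B AD8 Env; potency is for inhibitors of fusion seen as a drop in luminescence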
[4] = inhibitors of HIV Env-driven cell fusion, dose response, cherry-pick (AID 652057); assay type: functional, cell-based
[5] = ZM109 Env clade C HIV-1 fusion inhibitors, dose response, HeLa effector, CEM target cells, luciferase, cherry-pick (AID 652058); assay type: functional, cell-based
[6] = target: E3 ubiquitin-protein ligase Mdm2 (Homo sapiens, UniProt Q00987); experiment: enhancers of MDM2-luciferase reporter signal, concentration-effect titration, project on inhibitors of MDM2 ubiquitin ligase, cellular assay, luminescent readout, 384-well plate format (AID 1394); assay type: functional;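 also: MDM2 E3 inhibitors raise luminescence so EC50 is for signal enhancement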
[7] = HepG2 cell cytotoxicity, dose response, cytotoxicity control, cherry-picked samples (AID 1159577); assay type: functional, cell-based
[8] = P. falciparum Dd2 growth inhibitors, dose response, SYBR Green, cherry-picked samples (AID 1159567); assay type: functional, cell-based
[9] = THP-1 cell cytotoxicity, dose response, cytotoxicity control for Vif-APOBEC3G degradation inhibitor project, THP-1 cells (AID 1117359); assay type: functional; conditions: Human immunodeficiency virus 1, THP-1
Vero = Vero cell cytotoxicity, cytotoxicity control for flavivirus capping enzyme inhibitors (AID 588742); assay type: functional; conditions: Chlorocebus sabaeus
[10] = non-specific cell cytotoxicity, dose response, cytotoxicity control for PAX8 inhibitor project, plate reader, dry powder samples (AID 743021); assay type: functional, cell-based
[11] = CRF-BP/CRF-R2 complex antagonists, dose response, cell-based, uHTS hits, 384-well (AID 651639); assay type: functional, Homo sapiens; conditions: read-out: IC50_Mean
[12] = target: T1, Corticotropin-releasing factor receptor 2/Corticotropin-releasing factor-binding protein (Homo sapiens, UniProt P24387+Q13324); experiment: activators of CRF receptor 2 with binding protein – uHTS hits, confirmation (AID 602473); assay type: functional; conditions: read-out: EC50_Mean
T1 sequence (Q13324 whole entry): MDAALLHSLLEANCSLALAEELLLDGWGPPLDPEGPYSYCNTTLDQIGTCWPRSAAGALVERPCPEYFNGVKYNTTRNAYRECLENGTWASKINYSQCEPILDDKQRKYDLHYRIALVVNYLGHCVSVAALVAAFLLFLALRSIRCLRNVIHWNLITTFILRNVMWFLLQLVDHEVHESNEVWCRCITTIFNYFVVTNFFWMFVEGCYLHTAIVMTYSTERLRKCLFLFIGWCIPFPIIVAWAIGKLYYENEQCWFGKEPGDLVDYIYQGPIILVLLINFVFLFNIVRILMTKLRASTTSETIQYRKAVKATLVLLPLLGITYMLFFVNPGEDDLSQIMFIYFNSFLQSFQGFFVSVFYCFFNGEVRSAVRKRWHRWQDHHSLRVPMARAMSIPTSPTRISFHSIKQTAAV
T1 sequence (P24387 whole entry): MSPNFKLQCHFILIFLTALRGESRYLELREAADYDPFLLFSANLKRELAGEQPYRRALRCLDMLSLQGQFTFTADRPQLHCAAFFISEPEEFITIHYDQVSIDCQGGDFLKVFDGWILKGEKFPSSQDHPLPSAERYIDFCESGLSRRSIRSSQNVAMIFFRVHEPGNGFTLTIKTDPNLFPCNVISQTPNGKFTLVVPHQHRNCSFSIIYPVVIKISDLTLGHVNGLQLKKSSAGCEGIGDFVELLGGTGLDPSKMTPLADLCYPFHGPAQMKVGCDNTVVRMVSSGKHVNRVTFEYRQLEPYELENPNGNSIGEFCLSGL

[13] = target: Heat shock protein HSP 90-alpha (Homo sapiens, UniProt P07900); assay type: functional, organism-based
[14] = target: T1, Corticotropin-releasing factor receptor 2/Corticotropin-releasing factor-binding protein; experiment: Dose Response confirmation of uHTS hits for small molecule antagonists of the CRF-binding protein and CRF-R2 receptor complex.; assay type: functional; conditions: read-out: IC50_Mean
[15] = Luminescence Cell-Based Dose Confirmation HTS to Identify Inhibitors of Platelet Dense Granule Release. [Related pubchem assays: 1663 (Primary HTS), 1678 (Summary of Project)]; assay type: functional
Paired box protein Pax-8 = Paired box protein Pax-8 (Homo sapiens, UniProt Q06710); experiment: inhibitors of PAX8-driven TPO luciferase reporter, dose response, RMG-I cells, cherry-pick (AID 687027); assay type: functional, cell-based;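 also: luciferase reporter driven by Pax8 target thyroperoxidase promoter measured by SteadyGlo luminescence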
[16] = target: Luciferin 4-monooxygenase (Photinus pyralis, UniProt P08659); experiment: firefly luciferase enzyme inhibitors, dose response, biochemical, luminescence (AID 1891)
[17] = target: T2, Tyrosyl-DNA phosphodiesterase 2 (Homo sapiens, UniProt O95551); experiment: human TDP2 enzyme inhibitors, dose response, biochemical, epi absorbance, IC50 (AID 743297)
T2 sequence (O95551 whole entry): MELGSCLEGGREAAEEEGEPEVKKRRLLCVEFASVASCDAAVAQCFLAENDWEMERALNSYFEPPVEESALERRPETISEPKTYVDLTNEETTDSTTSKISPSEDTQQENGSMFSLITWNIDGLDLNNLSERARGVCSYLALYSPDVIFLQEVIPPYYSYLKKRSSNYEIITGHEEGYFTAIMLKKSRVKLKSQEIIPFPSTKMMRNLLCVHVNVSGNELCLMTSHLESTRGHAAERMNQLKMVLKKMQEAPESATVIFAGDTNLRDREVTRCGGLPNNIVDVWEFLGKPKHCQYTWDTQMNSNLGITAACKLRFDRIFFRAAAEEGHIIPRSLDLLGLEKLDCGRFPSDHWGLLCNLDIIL

cells [18] = assay type: functional, cell-based
[19] = control 3'UTR Renilla luciferase suppression, dose response, counter-screen for Shn3 inhibitor project, cell-based, Clone20-Shn3RL, cherry-picked (AID 624133); assay type: functional
[20] = Shn3 3'UTR reporter inhibitors, dose response, cell-based, Clone20 osteoblasts, firefly luciferase, cherry-picked (AID 624132); assay type: functional;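 also: firefly luciferase luminescence from reporter carrying the Shn3 3'UTR in osteoblasts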
INS1 = experiment: beta cell apoptosis inhibitors, cytokine rescue, dose response, luminescence, retest (AID 449756); assay type: functional, cell-based; conditions: Rattus norvegicus;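 also: cell death triggered by IL-1 beta plus TNF-alpha plus IFN-gamma mixture; protective hits raise ATP signal compared with cytokine alone wells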
cells [21] = assay type: functional, cell-based; remark: listed apart in the source
[22] = HepG2 cell cytotoxicity, dose response, cytotoxicity control for Shn3 inhibitor project, CellTiter-Glo, cherry-picked (AID 624134); assay type: functional, cell-based
[23] = target: T3, Microphthalmia-associated transcription factor (Homo sapiens, UniProt O75030); experiment: TRPM1 promoter luciferase signal decrease, dose response, MITF inhibitor project, cell-based, SK-MEL-5, cherry-picked, set 3 (AID 493073); assay type: functional
T3 sequence (O75030 whole entry): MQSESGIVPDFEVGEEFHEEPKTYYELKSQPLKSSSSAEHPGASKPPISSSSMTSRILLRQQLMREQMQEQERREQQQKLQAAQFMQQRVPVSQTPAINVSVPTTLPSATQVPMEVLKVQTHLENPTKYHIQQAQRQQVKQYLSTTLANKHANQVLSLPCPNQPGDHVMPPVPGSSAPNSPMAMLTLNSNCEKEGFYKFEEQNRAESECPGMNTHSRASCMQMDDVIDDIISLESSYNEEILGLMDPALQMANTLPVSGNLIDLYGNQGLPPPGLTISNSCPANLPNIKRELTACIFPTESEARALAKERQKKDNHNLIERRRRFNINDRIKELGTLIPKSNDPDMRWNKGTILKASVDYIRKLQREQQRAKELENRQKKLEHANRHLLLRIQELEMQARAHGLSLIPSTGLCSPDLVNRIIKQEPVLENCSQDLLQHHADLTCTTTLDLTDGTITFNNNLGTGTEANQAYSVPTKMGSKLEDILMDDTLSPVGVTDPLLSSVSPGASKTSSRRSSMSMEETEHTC

[24] = Luminescence Cell-Based Dose Retest to Confirm Inhibitors of Cancer Stem Cells. [Related pubchem assays (depositor defined):AID2717, AID2721]; assay type: functional; conditions: Homo sapiens
[25] = tested on: Streptococcus sp. 'group A'; experiment: growth inhibition of control SK(-) GAS strain, dose response, counter-screen for streptokinase expression inhibitor project, luminescence, kanamycin, BacTiterGlo, confirmation (AID 1900); assay type: functional, organism-based
Streptococcus = experiment: Group A Streptococcus viability loss, dose response, counter-screen for streptokinase expression inhibitor project, luminescence, BacTiterGlo (AID 1915); assay type: functional, organism-based;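 also: potency for reduction of bacterial viability or growth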

Mitogen-activated protein kinase 10, sequence (P53779 whole entry, the tested form may be a part): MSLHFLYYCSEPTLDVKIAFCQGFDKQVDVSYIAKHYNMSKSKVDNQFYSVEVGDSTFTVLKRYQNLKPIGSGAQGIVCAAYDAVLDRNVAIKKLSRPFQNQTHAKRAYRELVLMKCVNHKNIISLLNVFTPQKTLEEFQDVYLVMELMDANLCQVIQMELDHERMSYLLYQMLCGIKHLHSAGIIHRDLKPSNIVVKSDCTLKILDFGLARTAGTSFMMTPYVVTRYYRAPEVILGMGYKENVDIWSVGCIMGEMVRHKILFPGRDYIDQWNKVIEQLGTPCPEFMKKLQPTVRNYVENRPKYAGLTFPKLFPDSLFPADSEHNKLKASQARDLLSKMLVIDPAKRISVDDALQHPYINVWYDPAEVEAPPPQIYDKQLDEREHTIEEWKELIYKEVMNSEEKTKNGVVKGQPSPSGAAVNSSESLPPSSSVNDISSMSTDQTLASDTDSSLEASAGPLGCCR
E3 ubiquitin-protein ligase Mdm2, sequence (Q00987 whole entry): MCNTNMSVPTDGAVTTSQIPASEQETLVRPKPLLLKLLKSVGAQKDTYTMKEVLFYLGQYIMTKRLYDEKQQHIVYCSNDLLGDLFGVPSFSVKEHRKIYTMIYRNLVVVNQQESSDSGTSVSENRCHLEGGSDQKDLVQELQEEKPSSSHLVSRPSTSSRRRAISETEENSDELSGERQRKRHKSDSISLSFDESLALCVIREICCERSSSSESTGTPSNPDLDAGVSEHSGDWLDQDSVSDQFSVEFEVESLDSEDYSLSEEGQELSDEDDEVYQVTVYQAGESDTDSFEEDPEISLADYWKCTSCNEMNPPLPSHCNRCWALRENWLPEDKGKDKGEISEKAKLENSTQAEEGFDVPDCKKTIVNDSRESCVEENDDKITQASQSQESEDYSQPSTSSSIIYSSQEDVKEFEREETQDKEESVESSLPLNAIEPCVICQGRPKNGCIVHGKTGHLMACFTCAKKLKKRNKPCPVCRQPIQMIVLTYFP
Paired box protein Pax-8, sequence (Q06710 whole entry): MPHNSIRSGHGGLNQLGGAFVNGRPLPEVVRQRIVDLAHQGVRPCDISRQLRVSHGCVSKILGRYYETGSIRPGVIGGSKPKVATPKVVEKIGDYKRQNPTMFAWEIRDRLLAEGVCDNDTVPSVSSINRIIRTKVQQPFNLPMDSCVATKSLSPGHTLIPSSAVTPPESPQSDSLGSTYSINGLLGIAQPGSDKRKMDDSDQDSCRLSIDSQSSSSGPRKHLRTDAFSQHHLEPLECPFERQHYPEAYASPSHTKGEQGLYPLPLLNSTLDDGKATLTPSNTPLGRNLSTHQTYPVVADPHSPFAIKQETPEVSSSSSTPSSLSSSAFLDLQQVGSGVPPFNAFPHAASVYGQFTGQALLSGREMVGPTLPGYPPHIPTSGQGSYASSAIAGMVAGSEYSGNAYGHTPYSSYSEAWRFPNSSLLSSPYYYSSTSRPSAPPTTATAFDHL
Luciferin 4-monooxygenase, sequence (P08659 whole entry): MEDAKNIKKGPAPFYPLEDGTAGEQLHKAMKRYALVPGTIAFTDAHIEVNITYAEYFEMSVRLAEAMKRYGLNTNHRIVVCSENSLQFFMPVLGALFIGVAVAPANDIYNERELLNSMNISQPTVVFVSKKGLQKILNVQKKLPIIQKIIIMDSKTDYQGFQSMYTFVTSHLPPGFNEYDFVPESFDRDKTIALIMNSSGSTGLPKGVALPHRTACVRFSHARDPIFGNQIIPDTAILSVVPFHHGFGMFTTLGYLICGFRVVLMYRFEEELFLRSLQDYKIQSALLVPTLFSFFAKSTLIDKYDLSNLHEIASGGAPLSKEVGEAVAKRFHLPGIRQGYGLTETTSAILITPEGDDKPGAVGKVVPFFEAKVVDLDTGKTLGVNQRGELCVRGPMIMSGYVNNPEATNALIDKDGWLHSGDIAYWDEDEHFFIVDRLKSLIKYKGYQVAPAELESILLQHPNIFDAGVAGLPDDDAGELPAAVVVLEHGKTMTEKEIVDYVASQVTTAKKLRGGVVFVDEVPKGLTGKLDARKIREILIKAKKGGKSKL

SMILES: CC(=O)C1=C(C)N(Cc2ccc(Br)cc2)C(=S)NC1c1cccc(Cl)c1 (configuration not stated)
AC50 [2]: 10 µM (active)
AC50 [3]: 28.4 µM (active)
AC50 [4]: 4.14 µM (active)
AC50 [5]: 6.83 µM (active)

SMILES: C[C@H](CO)N1C[C@H](C)[C@H](CN(C)S(=O)(=O)c2ccccc2)Oc2ccc(NC(=O)Nc3ccccc3)cc2CC1=O
AC50 [3]: 3 µM (active)
AC50 [4]: < 0.26 µM (active)
AC50 [5]: 0.414 µM (active)

SMILES: N#C[C@@H]1[C@@H](c2ccc(C#Cc3ccc(F)cc3)cc2)[C@H](CO)N1C(=O)C1CCC1
AC50 [7]: > 39 µM (inactive)
AC50 [8]: 6.15 µM (active)

SMILES: Nc1nc(Sc2ccc([N+](=O)[O-])c3nonc23)c2nc[nH]c2n1
CC50 [9]: 0.68 µM (active)
CC50 (Vero): 5.9 µM (active)
AC50 [10]: 1.17 µM (active)

SMILES: CCOc1ccc(C(=O)O/N=C(\N)c2ccccn2)cc1
EC50 [15]: 0.499 µM (active)
AC50 (Paired box protein Pax-8): 7.43 µM (active)
EC50 [16]: 0.847 µM (active)
AC50 [10]: 34.9 µM (active)

SMILES: COc1ccc(N(CC(=O)NCCSCc2ccc(Cl)cc2)S(C)(=O)=O)cc1Cl
AC50 [2]: 5.7 µM (active)
AC50 [3]: 6.47 µM (active)
AC50 [4]: 2.9 µM (active)
AC50 [5]: 4.11 µM (active)

SMILES: COc1ccccc1NC(=O)c1nc(S(=O)(=O)Cc2ccccc2)ncc1Cl
EC50 (cells [18]): > 350 µM (not active)
AC50 [19]: 6.58 µM (active)
AC50 [20]: 0.492 µM (active)
AC50 (Paired box protein Pax-8): 8.83 µM (active)
AC50 (INS1): 6.44 µM (active)
EC50 (cells [21]): 5 µM (active)
AC50 [22]: 14.2 µM (active)
AC50 [23]: 8.91 µM (active)
AC50 [10]: 21.1 µM (active)

SMILES: CCCCCCOc1ccc(OC(=O)c2ccncc2)cc1
AC50 [2]: 5.4 µM (active)
AC50 [24]: 3.67 µM (active)
AC50 [4]: 4.71 µM (active)
AC50 [5]: 44.6 µM (active)

SMILES: Cc1cc(O)nc(SCC(=O)Nc2ccc(Br)cc2)c1C#N
IC50 [11]: 15.4 µM (active)
EC50 [25]: 6.89 µM (active)
EC50 (Streptococcus): 20.1 µM (active)

Other lines, results leading:

IC50 [1]: > 93.1 µM (not active)
SMILES: COc1ccc(C2C(C(=O)NCc3ccco3)CCC(=O)N2c2ccc(OC)cc2)cc1 (configuration not stated)

IC50 [1]: > 93.1 µM (not active)
SMILES: O=C(c1ccccc1)c1nc[nH]c1C(=O)Nc1ccccn1

EC50 [6]: 0.75 µM (not active)
SMILES: O=C(CSc1ccc(-c2ccco2)nn1)NC1CCCC1

IC50 [1]: 53.1 µM (not active)
SMILES: COc1cc(C(=O)NCc2cn3ccsc3n2)cc(OC)c1OC

IC50 [11]: 15 µM (active)
EC50 [12]: > 53 µM (inactive)
AC50 [13]: 14.9 µM (active)
IC50 [14]: 6.45 µM (active)
SMILES: Cc1ccc(S(=O)(=O)Nc2ccc3cc([N+](=O)[O-])ccc3c2[N+](=O)[O-])cc1

IC50 [17]: 13.6 µM (inactive)
SMILES: Fc1ccc(Nc2cncc(-c3ccsc3)c2)cc1Cl

IC50 [11]: > 20 µM (inactive)
EC50 [12]: > 53 µM (inactive)
IC50 [14]: < 0.368 µM (active)
SMILES: Cc1ccc(SCc2noc(-c3c(C)noc3C)n2)cc1

IC50 [11]: 11 µM (active)
EC50 [12]: > 53 µM (inactive)
IC50 [14]: 36.7 µM (active)
SMILES: CCn1nc(C)c(NC(=O)Nc2cccc(Cl)c2Cl)c1C

EC50 [6]: 8.86 µM (not active)
SMILES: O=C(Nc1ccncc1)Nc1ccncc1
